The values below come from ChEMBL document CHEMBL5727115, “TYK2 inhibitors and uses thereof” (2019).

The test has as its target Non-receptor tyrosine-protein kinase TYK2 (Homo sapiens, UniProt P29597). The test can be described thus: TYK2 JH2 Domain Binding Assay: Binding constants for compounds of the present invention against the JH2 domain were determined by the following protocol for a KINOMEscan® assay (DiscoveRx). A fusion protein of a partial length construct of human TYK2 (JH2domain-pseudokinase) (amino acids G556 to D888 based on reference sequence NP_003322.3) and the DNA binding domain of NFkB was expressed in transiently transfected HEK293 cells. From these HEK 293 cells, extracts were prepared in M-PER extraction buffer (Pierce) in the presence of Protease Inhibitor Cocktail Complete (Roche) and Phosphatase Inhibitor Cocktail Set II (Merck) per manufacturers' instructions. The TYK2 (JH2domain-pseudokinase) fusion protein was labeled with a chimeric double-stranded DNA tag containing the NFkB binding site (5′-GGGAATTCCC-3′ (SEQ ID NO: 1)) fused to an amplicon for qPCR readout, which was added directly to the expression extract (the final concentration of DNA-tag in the binding reaction is 0.1 nM).Streptavidin-coated magnetic beads (Dynal M280) were treated with a biotinylated small molecule ligand for 30 minutes at room temperature to generate affinity resins the binding assays. […]. The class given is cell-based.

Chain of Non-receptor tyrosine-protein kinase TYK2 (P29597 whole entry, the tested form may be a part): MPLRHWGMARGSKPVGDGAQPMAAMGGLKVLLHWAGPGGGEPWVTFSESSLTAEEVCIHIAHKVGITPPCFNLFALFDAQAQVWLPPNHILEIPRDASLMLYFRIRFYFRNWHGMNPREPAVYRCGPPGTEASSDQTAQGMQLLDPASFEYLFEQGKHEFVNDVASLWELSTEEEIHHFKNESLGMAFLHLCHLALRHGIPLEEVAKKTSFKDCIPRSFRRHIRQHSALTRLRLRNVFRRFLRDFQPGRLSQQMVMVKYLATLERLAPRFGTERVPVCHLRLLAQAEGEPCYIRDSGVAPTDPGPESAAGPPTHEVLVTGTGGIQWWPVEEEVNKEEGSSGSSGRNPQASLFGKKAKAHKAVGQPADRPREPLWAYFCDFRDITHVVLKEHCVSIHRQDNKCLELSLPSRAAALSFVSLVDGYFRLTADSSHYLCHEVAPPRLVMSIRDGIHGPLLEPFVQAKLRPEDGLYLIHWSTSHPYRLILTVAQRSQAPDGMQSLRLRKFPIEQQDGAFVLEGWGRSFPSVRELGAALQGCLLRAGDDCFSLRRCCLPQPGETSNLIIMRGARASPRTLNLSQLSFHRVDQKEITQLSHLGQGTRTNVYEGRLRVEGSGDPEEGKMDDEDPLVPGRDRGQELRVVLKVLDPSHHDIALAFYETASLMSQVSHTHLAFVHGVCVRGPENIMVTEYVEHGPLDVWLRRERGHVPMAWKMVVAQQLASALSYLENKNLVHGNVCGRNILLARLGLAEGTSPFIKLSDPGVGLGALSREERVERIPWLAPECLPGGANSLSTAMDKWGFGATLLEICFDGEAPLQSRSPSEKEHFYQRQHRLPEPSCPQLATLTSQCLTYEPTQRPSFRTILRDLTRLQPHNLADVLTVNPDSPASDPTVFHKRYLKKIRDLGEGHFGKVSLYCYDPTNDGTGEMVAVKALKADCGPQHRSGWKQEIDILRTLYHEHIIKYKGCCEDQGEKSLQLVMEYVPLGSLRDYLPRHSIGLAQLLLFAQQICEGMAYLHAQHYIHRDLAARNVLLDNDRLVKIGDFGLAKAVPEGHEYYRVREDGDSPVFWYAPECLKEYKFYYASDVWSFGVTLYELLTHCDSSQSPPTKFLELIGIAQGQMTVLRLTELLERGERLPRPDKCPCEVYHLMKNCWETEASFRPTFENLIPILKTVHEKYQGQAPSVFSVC

Turning to `COc1cc(Cl)ccc1Nc1cc(Nc2cc(C)ccn2)nc2[nH]n(C)c(=O)c12`, the Kd was more than 10 nM.
